Measurements published in the CheMixHub viscosity set.
“And” between values parts separate entries of the source, which are not always exact repeats. Identical values can stand only once.

Assay: xn = mol fraction of the nth substance listed

OC[C@H]1O[C@H](O[C@H]2[C@H](O)[C@@H](O)C(O)O[C@@H]2CO)[C@H](O)[C@@H](O)[C@@H]1O (stereo not given in full) + O
viscosity
Details	293.15 K	298.15 K	303.15 K	308.15 K	313.15 K	318.15 K
100 kPa, x1 = 0.0009465	–	–	–	0.759 mPa·s	–	0.627 mPa·s
100 kPa, x1 = 0.000975	–	0.942 mPa·s	–	0.763 mPa·s	–	0.628 mPa·s
100 kPa, x1 = 0.001093	–	0.948 mPa·s	–	0.765 mPa·s	–	0.632 mPa·s
100 kPa, x1 = 0.001306	–	0.96 mPa·s	–	0.773 mPa·s	–	0.639 mPa·s
100 kPa, x1 = 0.00134	–	0.96 mPa·s	–	0.776 mPa·s	–	0.639 mPa·s
100 kPa, x1 = 0.001467	–	0.968 mPa·s	–	–	–	–
100 kPa, x1 = 0.00157	–	0.972 mPa·s	–	0.786 mPa·s	–	0.645 mPa·s
100 kPa, x1 = 0.001596	–	0.975 mPa·s	–	0.785 mPa·s	–	0.648 mPa·s
100 kPa, x1 = 0.001818	–	0.985 mPa·s	–	0.794 mPa·s	–	0.655 mPa·s
100 kPa, x1 = 0.002168	–	–	–	0.804 mPa·s	–	0.667 mPa·s
100 kPa, x1 = 0.002215	–	–	–	0.81 mPa·s	–	0.669 mPa·s
100 kPa, x1 = 0.002657	–	1.029 mPa·s	–	0.827 mPa·s	–	0.682 mPa·s
101 kPa, x1 = 0.0009	1.022 mPa·s	0.9029 mPa·s	0.8044 mPa·s	0.7221 mPa·s	0.6529 mPa·s	–
101 kPa, x1 = 0.00099	1.025 mPa·s	0.9064 mPa·s	0.8074 mPa·s	0.724 mPa·s	0.6549 mPa·s	–
101 kPa, x1 = 0.0011	1.03 mPa·s	0.9093 mPa·s	0.8099 mPa·s	0.7266 mPa·s	0.6564 mPa·s	–
101 kPa, x1 = 0.0012	1.033 mPa·s	0.9119 mPa·s	0.812 mPa·s	0.7287 mPa·s	0.6586 mPa·s	–
101 kPa, x1 = 0.0013	1.037 mPa·s and 1.041 mPa·s	0.9159 mPa·s and 0.9193 mPa·s	0.8144 mPa·s and 0.8178 mPa·s	0.7315 mPa·s and 0.7341 mPa·s	0.6606 mPa·s and 0.6619 mPa·s	–
101 kPa, x1 = 0.0014	1.045 mPa·s	0.9231 mPa·s	0.8202 mPa·s	0.7362 mPa·s	0.6645 mPa·s	–
101 kPa, x1 = 0.0015	1.05 mPa·s	0.9262 mPa·s	0.823 mPa·s	0.7383 mPa·s	0.6669 mPa·s	–
101 kPa, x1 = 0.0016	1.054 mPa·s	–	0.8261 mPa·s	0.7406 mPa·s	0.6687 mPa·s	–
101 kPa, x1 = 0.0018	1.062 mPa·s	0.9361 mPa·s	0.833 mPa·s	0.7449 mPa·s	0.6724 mPa·s	–
101.3 kPa, x1 = 0.000724	–	–	–	0.751 mPa·s	–	–
101.3 kPa, x1 = 0.00107	–	0.948 mPa·s	–	0.766 mPa·s	–	0.633 mPa·s
101.3 kPa, x1 = 0.00143	–	0.964 mPa·s	–	0.779 mPa·s	–	0.643 mPa·s
101.3 kPa, x1 = 0.00179	–	0.984 mPa·s	–	0.794 mPa·s	–	0.655 mPa·s
101.3 kPa, x1 = 0.002146	–	–	–	0.809 mPa·s	–	–
101.3 kPa, x1 = 0.002501	–	1.019 mPa·s	–	0.819 mPa·s	–	0.678 mPa·s
101.3 kPa, x1 = 0.002851	–	1.037 mPa·s	–	0.836 mPa·s	–	0.688 mPa·s
101.3 kPa, x1 = 0.003177	–	1.053 mPa·s	–	0.848 mPa·s	–	0.698 mPa·s
